Measurements reported in patent US20150299219A1, “BICYCLIC PYRAZOLONE COMPOUNDS AND METHODS OF USE” (Calitor Sciences, LLC, priority 2014, published 2015).

Columns and labels:
Type in all cases: biochemical
Axl (h) = target: T1, Axl (h) (Homo sapiens, UniProt P30530); test: Axl (h) kinase assay
T1 construct: purchased Millipore UK Ltd
T1 sequence (P30530 26-894): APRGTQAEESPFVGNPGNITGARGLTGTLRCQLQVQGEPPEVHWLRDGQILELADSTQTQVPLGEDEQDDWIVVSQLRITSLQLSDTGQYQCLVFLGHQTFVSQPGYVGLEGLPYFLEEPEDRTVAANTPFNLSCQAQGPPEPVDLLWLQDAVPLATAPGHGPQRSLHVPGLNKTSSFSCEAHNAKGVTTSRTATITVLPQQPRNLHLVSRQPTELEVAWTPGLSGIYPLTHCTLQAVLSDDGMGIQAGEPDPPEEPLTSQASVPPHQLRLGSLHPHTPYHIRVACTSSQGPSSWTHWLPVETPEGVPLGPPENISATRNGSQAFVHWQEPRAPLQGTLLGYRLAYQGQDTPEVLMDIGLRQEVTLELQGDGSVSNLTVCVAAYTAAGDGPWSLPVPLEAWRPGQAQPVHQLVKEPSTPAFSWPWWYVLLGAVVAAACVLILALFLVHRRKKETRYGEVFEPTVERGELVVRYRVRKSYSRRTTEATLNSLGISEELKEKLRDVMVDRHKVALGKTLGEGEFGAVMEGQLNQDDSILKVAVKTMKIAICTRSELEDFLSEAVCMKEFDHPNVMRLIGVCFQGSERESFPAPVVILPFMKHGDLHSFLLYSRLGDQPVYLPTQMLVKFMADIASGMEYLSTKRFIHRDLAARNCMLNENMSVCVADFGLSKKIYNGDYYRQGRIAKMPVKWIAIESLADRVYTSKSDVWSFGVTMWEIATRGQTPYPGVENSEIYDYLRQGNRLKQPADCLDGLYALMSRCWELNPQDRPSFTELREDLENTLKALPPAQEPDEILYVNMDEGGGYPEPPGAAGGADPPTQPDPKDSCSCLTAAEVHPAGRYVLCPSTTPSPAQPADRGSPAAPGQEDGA
Protocol: (§1) The above assay procedure can be used to determine the IC50 for inhibition and/or the inhibition constant, Ki. The IC50 is defined as the concentration of compound required to reduce the enzyme activity by 50% under the condition of the assay. The IC50 value is estimated by preparing a 10 point curve using a 1/2 log dilution series (for example, a typical curve may be prepared using the following compound concentrations: 10 μM, 3 μM, 1 μM, 0.3 μM, 0.1 μM, 0.03 μM, 0.01 μM, 0.003 μM, 0.001 μM and 0 μM).
(§2) Axl (h) is incubated with 8 mM MOPS pH 7.0, 0.2 mM EDTA, 250 μM KKSRGDYMTMQIG, 10 mM MgAcetate and [γ-^33P-ATP] (specific activity approx. 500 cpm/pmol, concentration as required). The reaction is initiated by the addition of the MgATP mix. After incubation for 40 minutes at room temperature, the reaction is stopped by the addition of 3% phosphoric acid solution. 10 μL of the reaction is then spotted onto a P30 filtermat and washed three times for 5 minutes in 75 mM phosphoric acid and once in methanol prior to drying and scintillation counting.
(§3) The kinase assays described herein were performed at Millipore UK Ltd, Dundee Technology Park, Dundee DD2 1SW, UK.

Mer (h) = target: T2, Mer (h) (Homo sapiens, UniProt Q12866); test: Mer (h) kinase assay
T2 construct: purchased Millipore UK Ltd
T2 sequence (Q12866 21-999): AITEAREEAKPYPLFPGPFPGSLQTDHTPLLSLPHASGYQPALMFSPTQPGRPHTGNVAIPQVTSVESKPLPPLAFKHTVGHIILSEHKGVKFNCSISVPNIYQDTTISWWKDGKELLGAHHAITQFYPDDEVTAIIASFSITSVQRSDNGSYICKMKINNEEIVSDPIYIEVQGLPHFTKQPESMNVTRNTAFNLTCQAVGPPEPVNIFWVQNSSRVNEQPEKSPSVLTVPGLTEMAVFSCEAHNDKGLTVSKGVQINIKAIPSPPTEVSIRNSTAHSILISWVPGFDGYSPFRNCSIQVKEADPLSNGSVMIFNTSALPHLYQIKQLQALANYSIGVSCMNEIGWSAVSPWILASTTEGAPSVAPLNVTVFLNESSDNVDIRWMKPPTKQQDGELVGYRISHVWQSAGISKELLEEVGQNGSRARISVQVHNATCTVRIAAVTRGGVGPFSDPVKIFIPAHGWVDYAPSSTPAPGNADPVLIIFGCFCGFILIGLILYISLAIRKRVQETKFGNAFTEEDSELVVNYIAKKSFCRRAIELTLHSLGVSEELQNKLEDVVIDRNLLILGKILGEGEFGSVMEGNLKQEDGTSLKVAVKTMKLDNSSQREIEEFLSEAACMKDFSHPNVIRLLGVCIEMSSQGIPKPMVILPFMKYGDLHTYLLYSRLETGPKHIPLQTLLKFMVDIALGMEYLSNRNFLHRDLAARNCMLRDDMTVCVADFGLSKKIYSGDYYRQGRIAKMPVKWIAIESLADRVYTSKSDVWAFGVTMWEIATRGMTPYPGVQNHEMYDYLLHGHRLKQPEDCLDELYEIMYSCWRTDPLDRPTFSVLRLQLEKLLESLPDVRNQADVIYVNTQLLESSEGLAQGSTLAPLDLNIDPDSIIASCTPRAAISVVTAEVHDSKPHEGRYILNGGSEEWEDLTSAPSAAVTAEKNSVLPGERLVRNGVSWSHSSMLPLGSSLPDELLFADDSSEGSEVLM
Protocol: as §1
as §2, with “Mer” for “Axl”, “EDTA, 30 mM NaCl,” for “EDTA,”, “GGMEDIYFEFMGGKKK,” for “KKSRGDYMTMQIG,”
as §3

c-Met (h) = target: T3, c-Met (h) (Homo sapiens, UniProt P08581); test: c-Met (h) kinase assay
T3 construct: purchased Millipore UK Ltd
Protocol: Kinase assays can be performed by measurement of incorporation of γ-^33P ATP into immobilized myelin basic protein (MBP). High binding white 384 well plates (Greiner) are coated with MBP (Sigma #M-1891) by incubation of 60 μL/well of 20 μg/mL MBP in Tris-buffered saline (TBS; 50 mM Tris pH 8.0, 138 mM NaCl, 2.7 mM KCl) for 24 h at 4° C. Plates are washed 3× with 100 μL TBS. Kinase reactions are carried out in a total volume of 34 μL in kinase buffer (5 mM Hepes pH 7.6, 15 mM NaCl, 0.01% bovine gamma globulin (Sigma #I-5506), 10 mM MgCl2, 1 mM DTT, 0.02% TritonX-100). Compound dilutions are performed in DMSO and added to assay wells to a final DMSO concentration of 1%. Each data point is measured in duplicate, and at least two duplicate assays are performed for each individual compound determination. Enzyme is added to final concentrations of 10 nM or 20 nM, for example. A mixture of unlabeled ATP and γ-^33P ATP is added to start the reaction (2×10^6 cpm of γ-^33P ATP per well (3000 Ci/mmole) and 10 μM unlabeled ATP, typically. The reactions are carried out for 1 h at room temperature with shaking. Plates are washed 7× with TBS, followed by the addition of 50 μL/well scintillation fluid (Wallac). Plates are read using a Wallac Trilux counter. This is only one format of such assays; various other formats are possible, as known to one skilled in the art.
as §1
as §2, with “Met” for “Axl”, “KKKSPGEYVNIEFG,” for “KKSRGDYMTMQIG,”
as §3

T3 sequence (P08581 25-1390): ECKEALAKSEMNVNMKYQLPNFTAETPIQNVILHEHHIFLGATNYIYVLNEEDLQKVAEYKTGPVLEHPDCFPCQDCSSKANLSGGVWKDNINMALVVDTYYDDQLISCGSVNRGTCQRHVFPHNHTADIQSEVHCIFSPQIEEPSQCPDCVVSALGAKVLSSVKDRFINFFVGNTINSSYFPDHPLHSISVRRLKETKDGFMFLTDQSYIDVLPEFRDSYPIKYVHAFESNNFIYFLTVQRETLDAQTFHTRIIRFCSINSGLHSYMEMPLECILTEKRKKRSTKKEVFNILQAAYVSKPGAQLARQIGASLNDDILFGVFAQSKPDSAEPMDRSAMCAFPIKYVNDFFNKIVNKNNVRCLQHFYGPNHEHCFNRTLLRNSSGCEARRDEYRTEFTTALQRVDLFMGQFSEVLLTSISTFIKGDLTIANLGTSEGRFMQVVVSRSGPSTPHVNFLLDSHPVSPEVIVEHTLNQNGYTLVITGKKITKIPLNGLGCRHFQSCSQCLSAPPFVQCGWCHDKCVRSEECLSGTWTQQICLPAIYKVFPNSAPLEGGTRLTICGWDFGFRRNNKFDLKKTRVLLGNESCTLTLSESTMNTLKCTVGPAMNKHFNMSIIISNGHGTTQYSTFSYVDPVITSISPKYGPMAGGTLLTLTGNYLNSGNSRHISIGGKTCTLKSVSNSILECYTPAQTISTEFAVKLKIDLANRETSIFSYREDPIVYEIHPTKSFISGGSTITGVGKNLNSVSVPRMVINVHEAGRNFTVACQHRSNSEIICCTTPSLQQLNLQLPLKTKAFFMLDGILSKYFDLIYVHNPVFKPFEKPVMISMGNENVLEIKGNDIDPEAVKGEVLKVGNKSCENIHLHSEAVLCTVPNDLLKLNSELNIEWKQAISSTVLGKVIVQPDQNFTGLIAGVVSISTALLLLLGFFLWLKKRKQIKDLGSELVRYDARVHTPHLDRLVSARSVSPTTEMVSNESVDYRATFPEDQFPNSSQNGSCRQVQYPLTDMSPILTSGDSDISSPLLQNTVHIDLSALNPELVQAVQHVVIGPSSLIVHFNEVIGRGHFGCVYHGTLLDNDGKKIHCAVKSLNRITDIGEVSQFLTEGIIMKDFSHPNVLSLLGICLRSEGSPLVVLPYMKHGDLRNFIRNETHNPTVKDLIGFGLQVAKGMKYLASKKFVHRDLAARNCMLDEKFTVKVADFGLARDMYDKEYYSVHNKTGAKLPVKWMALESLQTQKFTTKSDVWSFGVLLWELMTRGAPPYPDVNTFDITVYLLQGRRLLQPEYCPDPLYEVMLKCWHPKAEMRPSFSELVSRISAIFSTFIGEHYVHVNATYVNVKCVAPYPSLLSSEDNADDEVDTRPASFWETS

IC50 (Axl (h)) [nM]	IC50 (Mer (h)) [nM]	IC50 (c-Met (h)) [nM]	SMILES
19	4	15	O=C(Nc1ccc(Oc2ccnc(NC(=O)C3CC3)c2)c(F)c1)c1c2n(n(-c3ccccc3)c1=O)CCC2 [Ex. 5, N-(4-((2-(cyclopropanecarboxamido)pyridin-4-yl)oxy)-3-fluorophenyl)-2-oxo-1-phenyl-2,4,5,6-tetrahydro-1H-pyrrolo[1,2-b]pyrazole-3-carboxamide]
36	33	57	CC(=O)Nc1cc(Oc2ccc(NC(=O)c3c4n(n(-c5ccccc5)c3=O)CCC4)cc2F)ccn1 [Ex. 6, N-(4-((2-acetamidopyridin-4-yl)oxy)-3-fluorophenyl)-2-oxo-1-phenyl-2,4,5,6-tetrahydro-1H-pyrrolo[1,2-b]pyrazole-3-carboxamide]
7	3	5	O=C(Nc1ccc(Oc2ccnc(NC(=O)C3CC3)c2)cn1)c1c2n(n(-c3ccccc3)c1=O)CCCC2 [Ex. 8, N-(5-((2-(cyclopropanecarboxamido)pyridin-4-yl)oxy)pyridin-2-yl)-2-oxo-1-phenyl-1,2,4,5,6,7-hexahydropyrazolo[1,5-a]pyridine-3-carboxamide]
14	12	27	CC(=O)Nc1cc(Oc2ccc(NC(=O)c3c4n(n(-c5ccccc5)c3=O)CCCC4)nc2)ccn1 [Ex. 9, N-(5-((2-acetamidopyridin-4-yl)oxy)pyridin-2-yl)-2-oxo-1-phenyl-1,2,4,5,6,7-hexahydropyrazolo[1,5-a]pyridine-3-carboxamide]
5	6	12	O=C(Nc1ccc(Oc2ccnc(NC(=O)C3CC3)c2)cn1)c1c2n(n(-c3ccccc3)c1=O)CCOC2 [Ex. 11, N-(5-((2-(cyclopropanecarboxamido)pyridin-4-yl)oxy)pyridin-2-yl)-2-oxo-1-phenyl-2,4,6,7-tetrahydro-1H-pyrazolo[5,1-c][1,4]oxazine-3-carboxamide]
5		8	O=C(Nc1ccc(Oc2ccnc(NC(=O)C3CC3)c2)c(F)c1)c1c2n(n(-c3ccccc3)c1=O)CCOC2 [Ex. 17, N-(4-((2-(cyclopropanecarboxamido)pyridin-4-yl)oxy)-3-fluorophenyl)-2-oxo-1-phenyl-2,4,6,7-tetrahydro-1H-pyrazolo[5,1-c][1,4]oxazine-3-carboxamide]
49	44		CC(=O)Nc1cc(Oc2ccc(NC(=O)c3c4n(n(-c5ccccc5)c3=O)CCOC4)cc2)ccn1 [Ex. 20, N-(4-((2-acetamidopyridin-4-yl)oxy)phenyl)-2-oxo-1-phenyl-2,4,6,7-tetrahydro-1H-pyrazolo[5,1-c][1,4]oxazine-3-carboxamide]
9		14	Nc1nccc(Oc2ccc(NC(=O)c3c4n(n(-c5ccccc5)c3=O)CCCC4)nc2)c1Cl [Ex. 21, N-(5-((2-amino-3-chloropyridin-4-yl)oxy)pyridin-2-yl)-2-oxo-1-phenyl-1,2,4,5,6,7-hexahydropyrazolo[1,5-a]pyridine-3-carboxamide]
16		54	Nc1nccc(Oc2ccc(NC(=O)c3c4n(n(-c5ccccc5)c3=O)CCCC4)cc2)c1Cl [Ex. 22, N-(4-((2-amino-3-chloropyridin-4-yl)oxy)phenyl)-2-oxo-1-phenyl-1,2,4,5,6,7-hexahydropyrazolo[1,5-a]pyridine-3-carboxamide]
10	14	30	Nc1nccc(Oc2ccc(NC(=O)c3c4n(n(-c5ccccc5)c3=O)CCCC4)cc2F)c1Cl [Ex. 23, N-(4-((2-amino-3-chloropyridin-4-yl)oxy)-3-fluorophenyl)-2-oxo-1-phenyl-1,2,4,5,6,7-hexahydropyrazolo[1,5-a]pyridine-3-carboxamide]
